Read-outs that look alike come from different tables or passages of the source.
What was measured:
β2AR-Gs complex [1] = biological target: T1, β2AR-Gs complex (Homo sapiens, UniProt P07550); assay: Negative stain EM analysis of β2AR-Gs complex; details: FIG. 11
T1 construct: made in house; host or cells: β2AR: Sf9 insect cells
Procedure: A β2AR-Gs protein complex was prepared for electron microscopy using a conventional negative staining protocol, and imaged at room temperature using a Tecnai T12 electron microscope operated at 120 kV according to a low-dose procedure. Images were recorded at a magnification of 71,138× and a defocus value of approximately ˜1.1 μm on a Gatan US4000 CCD camera. All images were binned (2×2 pixels) to obtain a pixel size of 4.16 Å at a specimen level. Particles were manually […] using e2boxer (part of the EMAN2 software suite). 2D reference-free alignment and classification of particle projections were performed using ISAC. 124,279 projections of β2AR-Gs were subjected to ISAC producing 131 classes consistent in two-way matching and 10,000 particle projections.

[2] = biological target: T2, MelBSt (melibiose permease) (Salmonella typhimurium, UniProt P30878); details: 1.5 wt % detergent, 90 minutes
T2 construct: made in house; host or cells: E. coli DW2 (ΔmelB, ΔlacZY), plasmid pK95ΔAHB/WT MelBSt/CH10
Procedure: Specifically, Salmonella typhimurium MelBSt (melibiose permease) having a 10-His tag at the C-terminus was expressed in E. coli DW2 cells (ΔmelB and ΔlacZY) using a pK95ΔAHB/WT MelBSt/CH10 plasmid. Cell growth and membrane preparation were carried out according to the methods disclosed in the paper written by A. S. Ethayathulla et al. (Nat. Commun. 2014, 5, 3009). A protein assay was performed using a Micro BCA kit (Thermo Scientific, Rockford, Ill.). MelBSt stability in DTMs or DDM was evaluated using the protocol disclosed in Nat. Methods 2010, 7, 1003-1008, written by P. S. Chae et al. A MelBSt-containing membrane sample (the final protein concentration was 10 mg/mL) was incubated in a solubilization buffer containing 1.5% (w/v) DDM or DTM (20 mM sodium phosphate, pH 7.5, 200 mM NaCl, 10% glycerol and 20 mM melibiose) at four different temperatures (0, 45, 55 and 65° C.) for 90 minutes. To remove an insoluble material, ultracentrifugation was performed using a Beckman Optima™ MAX ultracentrifuge equipped with a TLA-100 rotor at 355,590 g and 4° C. for 45 minutes. […] The loaded samples were analyzed by SDS-15% PAGE, and then visualized by immunoblotting with a Penta-His-HRP antibody (Qiagen, Germantown, Md.).

[3] = Critical micelle concentration by hydrophobic fluorescence staining with diphenylhexatriene (DPH); type: physicochemical
Procedure: A method of measuring CMC is not particularly limited, and may be a method widely known in the art, for example, fluorescent staining using diphenylhexatriene (DPH).
(§1) To identify the properties of DTMs synthesized according to the synthetic methods of Examples 1 and 2, the molecular weights (M.W.) and critical micellar concentrations (CMCs) of DTMs, and hydrodynamic radii (Rh) of formed micelles were measured.
(§2) Specifically, the CMCs were measured using hydrophobic fluorescence staining and diphenylhexatriene (DPH), and the hydrodynamic radii (Rh) of the micelles formed by each formulation were measured by dynamic light scattering (DLS).

β2AR-Gs complex [4] = biological target: T1, β2AR-Gs complex; assay: Stability of β2AR-Gs complex by analytical gel filtration (SEC); details: complex purified in detergent, compound-free running buffer, 3 and 15-day incubation, FIG. 9b
Procedure: 100 μM β2AR solubilized in 0.1% DDM was mixed with 120 μM Gs heterotrimer for 30 minutes at room temperature. 0.5 unit of apyrase (NEB) and 2 mM MgCl2 was added to facilitate complex formation, followed by further incubation for one hour. Subsequently, 1% DTM-A6 was added such that the final concentration reached 0.8%, and the sample was further incubated for 30 minutes to change DDM to DTM-A6. The protein solution was loaded into a M1 Flag column, washed with a series of buffers with different molar ratios of 0.1% DDM buffer to 0.5% DTM-A6 buffer to completely change DDM to DTM-A6, and the protein was finally eluted with 0.05% (70×CMC) DTM-A6 buffer. Preparative gel filtration was performed to purify the β2AR-Gs complex with a running buffer (20 mM HEPES pH 7.5, 100 mM NaCl, 0.005% DTM-A6, 1 mM BI, […]). To measure the stability of the β2AR-Gs complex in DTM-A6, analytical gel filtrations were performed using the running buffer as above, but after 3 and 15-day incubation, performed without DTM-A6 (compound-free condition).

[5] = Hydrodynamic radius of micelles by dynamic light scattering (DLS); type: physicochemical; details: 0.5 wt % detergent concentration
Procedure: A method of measuring the radius of a micelle is not particularly limited, but may be a method well known in the art, for example, dynamic light scattering (DLS).
as §1, §2

β2AR = biological target: T3, β2AR (Homo sapiens, UniProt P07550); assay: β2AR stability in detergent, [3H]-dihydroalprenolol (DHA) binding; type: biochemical; details: CMC+0.2 wt %, 4 days at room temperature, FIG. 9a
T3 construct: made in house; host or cells: Sf9 insect cells, baculovirus
Procedure: A receptor was expressed in Sf9 insect cells infected with a baculovirus and solubilized in 1% DDM. The DDM-solubilized receptor was purified by alprenolol-sepharose in the presence of 0.01% cholesteryl succinate (CHS). β2AR purified by DDM was diluted with a buffer containing DDM or DTM (DTM-A6, DTM-A7 or DTM-E7) to reach the final concentration of CMC+0.2 wt %. β2AR solubilized in each compound was stored for 4 days at room temperature, and the ligand binding ability of the receptor was measured at regular intervals by incubating the receptor with 10 nM radioactive [^3H]-dihydroalprenolol (DHA) for 30 minutes at room temperature. The mixture was loaded into a G-50 column, and a supernatant was collected using a certain amount of binding buffer (supplemented with 20 mM HEPES pH 7.5, 100 mM NaCl, 0.5 mg/ml BSA). In addition, a 15 ml scintillation fluid was added. Receptor-binding [^3H]-DHA was measured using a scintillation counter (Beckman).

MelBSt and MelBEc = assay: Galactoside-binding Trp→D2G FRET assay of detergent-solubilized MelB homologs; type: biochemical; details: 1.0% detergent, 60 minutes at 23° C., FIG. 8c
Procedure: In addition, RSO vesicles were prepared to be used for Trp→D^2G FRET assay. The RSO membrane vesicles were prepared by osmotic lysis from E. coli DW2 cells containing MelBSt or MelBEc. The RSO membrane vesicles mixed in a buffer (pH 7.5) containing 100 mM KPi and 100 mM NaCl at a protein concentration of 1 mg/ml were treated with 1.0% individual compounds (DDM, DTM-A5 and DTM-A6) for 60 minutes at 23° C., and ultracentrifuged using a TLA 120.2 rotor at 300,000 g or more for 45 minutes at 4° C. Supernatants were applied to a FRET (Trp→D^2G) experiment using an Amico-Bowman Series 2 (AB2) spectrofluorometer. The 2′-(N-dansyl)aminoalkyl-1-thio-β-D-galactopyranoside (D^2G, dansyl-galactoside) was obtained from Drs. Gerard Leblanc and H. Ronald Kaback. D^2G FRET signals of MelBSt and MelBEc were collected at 490 and 465 nm, respectively, upon excitation of Trp residues at 290 nm. 10 μM D^2G and excess melibiose or an equal amount of water (control) was added into an MelB solution at the time points of 1 minute and 2 minutes, respectively.

β2AR-Gs complex [6] = biological target: T1, β2AR-Gs complex; details: DDM-purified complex, previous study; cited from earlier work
LHI-RC complex = test system: T4, LHI-RC complex; assay: Structural stability of LHI-RC complex in detergent, UV-Vis absorbance at 875 nm; set-up: species or system R. capsulatus; details: 25° C., FIG. 5
T4 construct: His tag (implied only by Ni-NTA / HisSpinTrap purification); made in house; host or cells: R. capsulatus U43 [pUHTM86Bgl] membranes
Procedure: An experiment was conducted to evaluate the stabilization ability of DTMs on LHI-RC. The photosynthetic super assembly consists of a complex of light-harvesting complex I (LHI) and a reaction center (RC). The structural stability of LHI-RC was measured by a method of monitoring the structure of a protein for 20 days using UV-Vis spectroscopy. LHI-RC protein stability according to the concentration of an amphiphilic molecule was investigated using all DTMs of the present invention, and conventional amphiphilic molecules, such as DDM and OG, and the concentrations of an amphiphilic molecule used here were CMC+ 0.04 wt % (FIG. 5a) and CMC+ 0.2 wt % (FIG. 5b).
Specifically, LHI-RC stability was measured using a method disclosed in the paper published in 2008 by the inventors (P. S. Chae et al., ChemBioChem 2008, 9, 1706-1709.). […] A 10 mL aliquot of the solution of the frozen R. capsulatus membrane was homogenized using a glass homogenizer, and incubated with gentle stirring at 32° C. for 30 minutes. The homogenized membrane was treated with 1.0 wt % DDM for 30 minutes at 32° C. […] Protein stability was measured at regular intervals during the incubation by measuring UV-Vis spectra of the samples in the range of 650 to 950 nm. Protein integrity was evaluated by monitoring absorbance (A875) at 875 nm.

β2AR-Gs complex [7] = biological target: T1, β2AR-Gs complex; details: DDM-purified complex, previous study; cited from earlier work; remark: listed apart in the source
[8] = DPH fluorescence staining, aqueous solution

Q: Which “homogeneity of β2AR-Gs complex particles (negative stain EM)” value (β2AR-Gs complex [1]) does the source give for `CCCCCCC(CCCCCC)COCC(COCC(CCCCCC)CCCCCC)COCC(CO[C@@H]1OC(CO)[C@@H](O[C@H]2OC(CO)[C@@H](O)C(O)C2O)C(O)C1O)(CO[C@@H]1OC(CO)[C@@H](O[C@H]2OC(CO)[C@@H](O)C(O)C2O)C(O)C1O)CO[C@@H]1OC(CO)[C@H](O[C@H]2OC(CO)[C@@H](O)C(O)C2O)C(O)C1O` (stereo partly drawn) [DTM-A6] here?
A: highly homogeneous

Q: What about the “MelBst solubilization from the membrane” value ([2]; 55° C.) of the same compound?
A: most effectively solubilized

Q: What about the CMC [3, 8] of the same compound?
A: ~10 µM

Q: What about the “CMC (wt %)” value [3, 8] of the same compound?
A: ~0.0015 wt %

Q: And the “integrity of β2AR-Gs complex (SEC)” value (β2AR-Gs complex [4])?
A: continuously maintains its integrity as a complex for 15 days

Q: What about the “R2 (nm), detergent hydrodynamic radius” value [5] of the same compound?
A: 3.7 ± 0.0 nm

Q: And the “long-term β2AR receptor activity” value (β2AR)?
A: consistently maintained

Q: What about the “maintenance of MelB protein function (galactoside binding) of two homologs” value (MelBSt and MelBEc) of the same compound?
A: maintain protein function

Q: For `CCCCCCCCCCCCO[C@@H]1O[C@H](CO)[C@@H](O[C@H]2O[C@H](CO)[C@@H](O)[C@H](O)[C@H]2O)[C@H](O)[C@H]1O` [DDM, n-dodecyl-β-D-maltopyranoside], which “homogeneity of β2AR-Gs complex particles (negative stain EM)” value (β2AR-Gs complex [6]) is on record?
A: aggregation of particles

Q: What about the “LHI-RC protein stability when concentration increases from CMC+0.04 wt % to CMC+0.2 wt %” value (LHI-RC complex) of the same compound?
A: protein stability decreases

Q: What about the “MelBst solubilization from the membrane” value ([2]; 0° C. and 45° C.) of the same compound?
A: stably solubilized

Q: And the “MelBst protein extraction efficiency” value ([2]; 0° C.)?
A: higher protein extraction efficiency than DTMs

Q: And the “MelBst solubilization from the membrane” value ([2]; 65° C.)?
A: did not occur

Q: And the CMC [3]?
A: 170 µM

Q: And the CMC [3, 8]?
A: 170 µM

Q: What about the “CMC (wt %)” value [3, 8] of the same compound?
A: 0.0087 wt %

Q: What about the “integrity of β2AR-Gs complex” value (β2AR-Gs complex [7]) of the same compound?
A: significant dissociation between the receptor and Gs protein even after 2 day-incubation

Q: What about the “R2 (nm), detergent hydrodynamic radius” value [5] of the same compound?
A: 3.4 ± 0.0 nm

Q: And the “long-term β2AR receptor activity” value (β2AR)?
A: rapid loss of activity over time

Q: What about the “maintenance of MelB protein function (galactoside binding) of two homologs” value (MelBSt and MelBEc) of the same compound?
A: only one of the two homologs

Q: Which “LHI-RC protein stability when concentration increases from CMC+0.04 wt % to CMC+0.2 wt %” value (LHI-RC complex) does the source give for `CCCCCCCCO[C@@H]1O[C@H](CO)[C@@H](O)[C@H](O)[C@H]1O` [OG, n-octyl-β-D-glucopyranoside] here?
A: protein stability decreases

— patent US11524975B2, “Amphiphilic compound having dendronic hydrophobic group and application thereof” (Industry-University Cooperation Foundation Hanyang …, priority 2017, dated 2022)
